Test results as given in ChEMBL document CHEMBL1201862, “PubChem BioAssay data set” (2004).
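Cultured in 96-well plates, cells were exposed to test compound for 48 hours across five concentrations. GI50 marks 50% less growth.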 The source made the active and inactive calls. Cut-off read from the data, not from the text of the source: active = GI50 up to about 1.1 µM and inactive = higher.

Legend:
Assay in all cases: NCI tumour cell line growth inhibition, 48 h
[1] = system: 786-0
[2] = system: A549
[3] = system: ACHN
[4] = system: CAKI-1
[5] = system: CCRF-CEM
[6] = system: COLO 205
[7] = system: DLD-1
[8] = system: DMS-273
[9] = system: EKVX
[10] = system: HCC 2998
[11] = system: HCT-116
[12] = system: HCT-15
[13] = system: HOP-18
[14] = system: HOP-62
[15] = system: HOP-92
[16] = system: HT-29
[17] = system: IGROV-1
[18] = system: K562
[19] = system: KM-20L2
[20] = system: KM12
[21] = system: LOX IMVI
[22] = system: LXFL 529
[23] = system: M14
[24] = system: M19-MEL
[25] = system: MOLT-4
[26] = system: Malme-3M
[27] = system: NCI-H226
[28] = system: NCI-H23
[29] = system: NCI-H460
[30] = system: NCI-H522
[31] = system: OVCAR-3
[32] = system: OVCAR-4
[33] = system: OVCAR-5
[34] = system: OVCAR-8
[35] = system: RPMI-8226
[36] = system: RXF 393
[37] = system: RXF 631
[38] = system: SF-268
[39] = system: SF-295
[40] = system: SF-539
[41] = system: SK-MEL-28
[42] = system: SK-MEL-2
[43] = system: SK-MEL-5
[44] = system: SK-OV-3
[45] = system: SN12C
[46] = system: SNB-19
[47] = system: SNB-75
[48] = system: SNB-78
[49] = system: SW-620
[50] = system: TK-10
[51] = system: U-251
[52] = system: UACC-257
[53] = system: UACC-62
[54] = system: UO-31
[55] = system: XF498
[56] = system: A498
[57] = system: DMS-114
[58] = system: SR
[59] = system: HL-60

Cn1cc(NC(=O)c2cc(NC(=O)CCCCCCCCC(=O)Nc3cc(C(=O)Nc4cc(C(=O)NCCC(N)N)n(C)c4)n(C)c3)cn2C)cc1C(=O)NCCC(=N)N
GI50 [1]: 21.9 µM (inactive)
GI50 [2]: 16.9 µM (inactive)
GI50 [3]: 17.9 µM (inactive)
GI50 [4]: 22.5 µM (inactive)
GI50 [5]: 20.7 µM (inactive)
GI50 [6]: 20 µM (inactive)
GI50 [7]: 25.5 µM (inactive)
GI50 [8]: 17.1 µM (inactive)
GI50 [9]: 20.3 µM (inactive)
GI50 [10]: 24.7 µM (inactive)
GI50 [11]: 20 µM (inactive)
GI50 [12]: 35.4 µM
GI50 [13]: 25.9 µM (inactive)
GI50 [14]: 33 µM (inactive)
GI50 [15]: 36.6 µM (inactive)
GI50 [16]: 18.8 µM (inactive)
GI50 [17]: 24.5 µM (inactive)
GI50 [18]: 13.4 µM (inactive)
GI50 [19]: 19.7 µM (inactive)
GI50 [20]: 18.5 µM (inactive)
GI50 [21]: 36.9 µM (inactive)
GI50 [22]: 27.2 µM (inactive)
GI50 [23]: 22.3 µM (inactive)
GI50 [24]: 16.6 µM (inactive)
GI50 [25]: 19.9 µM (inactive)
GI50 [26]: 0.935 µM (active)
GI50 [27]: 25.8 µM (inactive)
GI50 [28]: 33.9 µM (inactive)
GI50 [29]: 20.1 µM (inactive)
GI50 [30]: 8.99 µM (inactive)
GI50 [31]: 31 µM (inactive)
GI50 [32]: 34.7 µM (inactive)
GI50 [33]: 21.4 µM (inactive)
GI50 [34]: 21.4 µM (inactive)
GI50 [35]: 5.35 µM (inactive)
GI50 [36]: 21.2 µM (inactive)
GI50 [37]: 26.9 µM (inactive)
GI50 [38]: 20.5 µM (inactive)
GI50 [39]: 23.3 µM (inactive)
GI50 [40]: 22.6 µM (inactive)
GI50 [41]: 12.1 µM (inactive)
GI50 [42]: 19.2 µM (inactive)
GI50 [43]: 4.74 µM (inactive)
GI50 [44]: 27.9 µM (inactive)
GI50 [45]: 23.8 µM (inactive)
GI50 [46]: 21.4 µM (inactive)
GI50 [47]: 18.1 µM (inactive)
GI50 [48]: 34.6 µM (inactive)
GI50 [49]: 19.6 µM (inactive)
GI50 [50]: 18.2 µM (inactive)
GI50 [51]: 17 µM (inactive)
GI50 [52]: 13.7 µM (inactive)
GI50 [53]: 20.7 µM (inactive)
GI50 [54]: 28.2 µM (inactive)
GI50 [55]: 28.6 µM (inactive)

COc1ccc(CC(=O)NCCc2ccc(OC)c(OC)c2OC)cc1
GI50 [1]: 41.6 µM (inactive)
GI50 [56]: > 100 µM (inactive)
GI50 [2]: 30.1 µM (inactive)
GI50 [3]: > 100 µM (inactive)
GI50 [5]: > 100 µM (inactive)
GI50 [7]: > 100 µM (inactive)
GI50 [57]: > 100 µM (inactive)
GI50 [9]: > 100 µM (inactive)
GI50 [10]: > 100 µM (inactive)
GI50 [11]: > 100 µM (inactive)
GI50 [13]: > 100 µM (inactive)
GI50 [14]: > 100 µM (inactive)
GI50 [16]: > 100 µM (inactive)
GI50 [17]: > 100 µM (inactive)
GI50 [18]: > 100 µM (inactive)
GI50 [19]: > 100 µM (inactive)
GI50 [20]: > 100 µM (inactive)
GI50 [22]: > 100 µM (inactive)
GI50 [23]: > 100 µM (inactive)
GI50 [24]: > 100 µM (inactive)
GI50 [25]: > 100 µM (inactive)
GI50 [26]: > 100 µM (inactive)
GI50 [27]: > 100 µM (inactive)
GI50 [28]: > 100 µM (inactive)
GI50 [29]: > 100 µM (inactive)
GI50 [30]: > 100 µM (inactive)
GI50 [33]: > 100 µM (inactive)
GI50 [34]: > 100 µM (inactive)
GI50 [35]: > 100 µM (inactive)
GI50 [36]: > 100 µM (inactive)
GI50 [37]: > 100 µM (inactive)
GI50 [38]: > 100 µM (inactive)
GI50 [39]: > 100 µM (inactive)
GI50 [40]: 16.4 µM (inactive)
GI50 [41]: > 100 µM (inactive)
GI50 [42]: > 100 µM (inactive)
GI50 [43]: > 100 µM (inactive)
GI50 [44]: > 100 µM (inactive)
GI50 [45]: > 100 µM (inactive)
GI50 [46]: > 100 µM (inactive)
GI50 [47]: > 100 µM (inactive)
GI50 [48]: > 100 µM (inactive)
GI50 [58]: > 100 µM (inactive)
GI50 [49]: > 100 µM (inactive)
GI50 [50]: > 100 µM (inactive)
GI50 [51]: > 100 µM (inactive)
GI50 [52]: > 100 µM (inactive)
GI50 [54]: > 100 µM (inactive)
GI50 [55]: > 100 µM (inactive)

COc1cc(/C=C\c2ccccn2)cc(OC)c1OC
GI50 [1]: > 100 µM (inactive)
GI50 [56]: 78.5 µM (inactive)
GI50 [2]: 85.7 µM (inactive)
GI50 [3]: > 100 µM (inactive)
GI50 [4]: > 100 µM (inactive)
GI50 [5]: > 100 µM (inactive)
GI50 [6]: 66.1 µM (inactive)
GI50 [7]: > 100 µM (inactive)
GI50 [57]: 45.6 µM (inactive)
GI50 [8]: 75 µM (inactive)
GI50 [9]: 48.5 µM (inactive)
GI50 [11]: > 100 µM (inactive)
GI50 [12]: 78.3 µM
GI50 [59]: 31 µM (inactive)
GI50 [13]: > 100 µM (inactive)
GI50 [14]: 79.4 µM (inactive)
GI50 [15]: 16.4 µM (inactive)
GI50 [16]: 46.3 µM (inactive)
GI50 [17]: > 100 µM (inactive)
GI50 [18]: 32.1 µM (inactive)
GI50 [19]: 71.4 µM (inactive)
GI50 [20]: 63.8 µM (inactive)
GI50 [21]: 64 µM (inactive)
GI50 [22]: 70.5 µM (inactive)
GI50 [23]: 55.6 µM (inactive)
GI50 [24]: 67.3 µM (inactive)
GI50 [25]: 61.9 µM (inactive)
GI50 [26]: > 100 µM (inactive)
GI50 [27]: > 100 µM (inactive)
GI50 [28]: > 100 µM (inactive)
GI50 [29]: > 100 µM (inactive)
GI50 [30]: 70 µM (inactive)
GI50 [31]: > 100 µM (inactive)
GI50 [32]: > 100 µM (inactive)
GI50 [33]: > 100 µM (inactive)
GI50 [34]: > 100 µM (inactive)
GI50 [35]: 30.6 µM (inactive)
GI50 [36]: > 100 µM (inactive)
GI50 [37]: > 100 µM (inactive)
GI50 [38]: > 100 µM (inactive)
GI50 [39]: > 100 µM (inactive)
GI50 [40]: > 100 µM (inactive)
GI50 [41]: > 100 µM (inactive)
GI50 [43]: 57.5 µM (inactive)
GI50 [45]: > 100 µM (inactive)
GI50 [46]: > 100 µM (inactive)
GI50 [47]: 47.3 µM (inactive)
GI50 [48]: > 100 µM (inactive)
GI50 [49]: 41.8 µM (inactive)
GI50 [50]: > 100 µM (inactive)
GI50 [51]: > 100 µM (inactive)
GI50 [52]: > 100 µM (inactive)
GI50 [53]: 60 µM (inactive)
GI50 [54]: 56.9 µM (inactive)
GI50 [55]: 16.2 µM (inactive)

Cn1c2c([N+](=O)[O-])cccc2c(=O)c2c(O)cc3c(c21)C=CC(C)(C)O3
GI50 [1]: 32 µM (inactive)
GI50 [56]: 5.51 µM (inactive)
GI50 [2]: 34.8 µM (inactive)
GI50 [3]: 43.5 µM (inactive)
GI50 [4]: 18.7 µM (inactive)
GI50 [5]: 41 µM (inactive)
GI50 [6]: 44.8 µM (inactive)
GI50 [7]: 24.8 µM (inactive)
GI50 [57]: 22.8 µM (inactive)
GI50 [8]: 33.2 µM (inactive)
GI50 [9]: 6.59 µM (inactive)
GI50 [10]: 20.7 µM (inactive)
GI50 [12]: 20.7 µM
GI50 [59]: 16.6 µM (inactive)
GI50 [13]: < 0.01 µM (active)
GI50 [16]: 23.4 µM (inactive)
GI50 [17]: 34.4 µM (inactive)
GI50 [18]: 39.3 µM (inactive)
GI50 [19]: 17.7 µM (inactive)
GI50 [20]: 23.2 µM (inactive)
GI50 [21]: 25.2 µM (inactive)
GI50 [22]: 25.6 µM (inactive)
GI50 [23]: 86.7 µM (inactive)
GI50 [25]: 42.9 µM (inactive)
GI50 [26]: 40.2 µM (inactive)
GI50 [28]: 30.8 µM (inactive)
GI50 [29]: 36.6 µM (inactive)
GI50 [30]: 11.2 µM (inactive)
GI50 [32]: 20.8 µM (inactive)
GI50 [33]: 35.7 µM (inactive)
GI50 [34]: 29.6 µM (inactive)
GI50 [35]: 18.4 µM (inactive)
GI50 [36]: 18.1 µM (inactive)
GI50 [37]: 33.7 µM (inactive)
GI50 [38]: 38.9 µM (inactive)
GI50 [39]: 24.1 µM (inactive)
GI50 [40]: 22.5 µM (inactive)
GI50 [41]: 84.5 µM (inactive)
GI50 [42]: 35.9 µM (inactive)
GI50 [43]: 28.3 µM (inactive)
GI50 [44]: 46.7 µM (inactive)
GI50 [45]: 52 µM (inactive)
GI50 [46]: 41.7 µM (inactive)
GI50 [47]: 23.9 µM (inactive)
GI50 [48]: 38 µM (inactive)
GI50 [49]: 69.3 µM (inactive)
GI50 [50]: 54.6 µM (inactive)
GI50 [51]: > 100 µM (inactive)
GI50 [52]: 46.5 µM (inactive)
GI50 [53]: 21.7 µM (inactive)
GI50 [54]: 40.6 µM (inactive)
GI50 [55]: 11.5 µM (inactive)
